Results published in paper PMC6941404, “Pigmentosins from Gibellula sp. as antibiofilm agents and a new glycosylated asperfuran from Cordyceps javanica” (Beilstein Journal of Organic Chemistry, 2019).
Like-named read-outs stand apart in the source and are kept apart here.

Legend:
S. aureus DSM1104 = assay: Bacteriostatic and bactericidal activity assay (Bioscreen growth curves, MBC on agar); format: cell-based, Staphylococcus aureus; details: for MIC90: read-out: Bacteriostatic activity MIC90; for Growth of S. aureus cells relative to growth control: at the lowest concentration where the biofilm formation was interrupted
Experimental: The assay was performed with each concentration tested in quadruplicates. The MIC was considered as the lowest concentration where the percentage of inhibition was higher than or equal to 90%. The minimum bactericidal concentration (MBC) of isolated compounds was also determined by transferring an aliquot of 2 µL from all concentrations tested onto nutrient agar (NA) plates, which were then incubated at 30 °C for 24 h. The MBC endpoint was defined as the lowest concentration of the compounds that killed microorganisms, where no visible growth of the microorganism tested was observed on the agar plates. The experimental procedures and the results are given in detail in Supporting Information File 1. […]
Bacteriostatic and bactericidal activity assay […]
aeruginosa PA14 were further evaluated for their bacteriostatic and bactericidal activit ies. The assay was performed in the Bioscreen 100 -well Honeycomb plate according to the protocol described by Yuyama et al. 13 where the MIC values were determined. The bacterial inoculum was prepared by growing S. aureus DSM1104 in Luria -Bertani broth (LB) for 24 h at 30 °C and then adjusting to 0.5 McFarland turbidity standard. The 0.5 McFarland bacterial suspension (296.25 µL) was transferred to the well containing 3.75 µL of each compound (20 mg/mL) and was subsequently two -fold diluted to give 8 concentrations ranging from 250 –1.95 µg/mL. Since compound 2 and the remaining five compounds could completely be dissolved in MeOH and dimethyl sulfoxide (DMSO), respectively, MeOH and DMSO were used as the solvent controls. The assay was performed with each concentration tested in quadruplicate. The bacterial growth was monitored on the Bioscreen -C automated growth curve analysis system (Oy Growth Curves AB Ltd, Helsinki, Finland) for 24 h with the optical density at 600 nm measured at 15 -min intervals. The MIC of each compound tested was read at 24 h of incubation and was considered as the lowest concentration where the percentage of inhibition was higher than or equal to 90%. Herein, the minimum bactericidal concentration (MBC) of isolated compounds was also determined by transferring an aliquot of 2 µL from all concentration tested onto Nutrient Agar (NA) plates which were then incubate d at 30 °C for 24 h. The MBC endpoint was defined as the lowest concentration of the compounds that kill microorganisms where no visible growth of the microorganism tested was observed on the agar plates.

[1] = test system: Staphylococcus aureus DSM1104; assay: Anti-biofilm activity, microtiter dish biofilm formation assay; format: cell-based; details: S. aureus DSM1104 (ATCC25923), lowest concentration preventing biofilm formation by at least 50%, 24 h, NA = No activity
Experimental: (§1) The isolated compounds were also tested for their ability to interfere in the biofilm formation of Staphylococcus aureus DSM1104 and Pseudomonas aeruginosa PA14 [51]. The biofilm inhibition assay was performed in 96-well microtiter plates using the microtiter dish biofilm formation assay described by O’Toole, with minor modifications, as outlined in our recent publications. The antibiofilm activity is expressed as MIC values, which is defined as the lowest concentration of substance that prevents biofilm formation of a target microorganism by at least 50%. […]
(§2) Anti-biofilm activity assay
(§3) The determination of the ability of isolated compounds to prevent biofilm formation of S. aureus DSM1104 (ATCC25923) and P. aeruginosa PA148 was performed using the microtiter dish biofilm formation assay described by O’Toole9 with minor modification provided in our recent publications 1, 6, 10–14. The biofilm forming strains were enriched overnight in CASO medium with and without 4% glucose for S. aureus and P. aeruginosa , respectively. After incubation at 37 °C under shaking condition, the overnight cultures were adjusted to equal the turbidity of 0.5 McFarland standard using the assay medium. The assay was carried out in 96 -well tissue cultured -treated microplates (TPP®, Germany) for S. aureus and non-treated plates (Falcon®MicroTestTM, USA) for P. aeruginosa , in which 10 μ L of each compound (0.5 mg/m L) in six replicates were mixed together with 140 μ L of bacterial suspension. Methanol and CASO medium with and without 4% glucose were used as negative controls and tetracycline (100 μg/m L) as positive control. Plates were covered with a sterile adhesive porous paper (Kisker Biotech GmbH, Steinfurt, Germany) and incubated at 37 °C for 24 h.
(§4) After incubation, ba cterial biofilms were stained with 0.1% crystal violet solution (Sigma -Aldrich) following the protocol of O’Toole .9 Then, the biofilm was subsequently quantified using a microplate reader at 550 nm. 12 In the current study, the antibiofilm activity was expr essed as MIC value which was defined as the lowest concentration of substance that prevents the biofilm formation of a target microorganism by at least 50%. […]

[2] = test system: Pseudomonas aeruginosa PA14; assay: as above; format: cell-based; details: lowest concentration preventing biofilm formation by at least 50%, 24 h, NA = No activity
Experimental: as §1, §2, §3, §4

[3] = S. aureus, minimum bactericidal concentration, no visible growth on NA plates, 30 °C, 24 h
[4] = Staphylococcus aureus, DSM1104, 24 h

SMILES | Cell growth (%) at 1.9 µg/ml (S. aureus DSM1104; S. aureus, 24 h) | Cell growth (%) at 3.9 µg/ml (S. aureus DSM1104; S. aureus, 24 h) | Cell growth (%) at 7.8 µg/ml (S. aureus DSM1104; S. aureus, 24 h) | Cell growth (%) at 15.6 µg/ml (S. aureus DSM1104; S. aureus, 24 h) | Cell growth (%) at 31.3 µg/ml (S. aureus DSM1104; S. aureus, 24 h) | Cell growth (%) at 62.5 µg/ml (S. aureus DSM1104; S. aureus, 24 h) | Cell growth (%) at 125 µg/ml (S. aureus DSM1104; S. aureus, 24 h) | Cell growth (%) at 250 µg/ml (S. aureus DSM1104; S. aureus, 24 h) | MBC (S. aureus DSM1104; [3]) | MBC (S. aureus DSM1104; [4]) | MIC90 (S. aureus DSM1104; [4]) | Growth of S. aureus cells relative to growth control (S. aureus DSM1104) | Anti-biofilm activity (MIC) SA [1] | Anti-biofilm activity (MIC) SA ([1]; listed as 1) | Anti-biofilm activity (MIC) PA [2] | MIC90 (S. aureus DSM1104; Staphylococcus aureus, DSM1104, S. aureus, lowest concentration with inhibition >= 90% at 24 h) | MBC (S. aureus DSM1104; Staphylococcus aureus, DSM1104, S. aureus, minimum bactericidal concentration, no visible growth on NA plates, 30 °C, 24 h, read-out: MBC) | Anti-biofilm activity (MIC) SA ([1]; listed as 2) | Anti-biofilm activity (MIC) SA ([1]; listed as pigmentosin B (2))
COc1cc(O)c2c(O)c3c(cc2c1-c1c(OC)cc(O)c2c(O)c4c(cc12)CC(C)OC4=O)CC(C)OC3=O (stereo not shown) [Pigmentosin A (1), pigmentosin A] | 89.5% | 53.2% | 32.8% | 30.3% | 25.4% | 22.6% | 23.8% | 32.5% | higher than 250 µg/ml | > 250 µg/mL | > 250 µg/mL | more than 80% | 1.9 µg/mL | active | nor antibiofilm activity |  |  |  | 
COc1cc(O)c2c(O)c3c(cc2c1-c1c(OC)cc(O)c2c(O)c4c(cc12)CC(CC(C)O)OC4=O)CC(C)OC3=O (stereo not shown) [Pigmentosin B (2), pigmentosin B] | 100% | 94.4% | 84.9% | 54.3% | 40.9% | 42.8% | 29.9% | 26.8% | higher than 250 µg/ml |  |  | more than 80% | 15.6 µg/mL |  | nor antibiofilm activity | > 250 µg/mL | > 250 µg/mL | active | 15.6 µg/mL
